The assay relates to SIRT6. Briefly: SIRT6 expression by immunohistochemistry in Normal Human Epidermal Keratinocytes. The assay is classed as cell-based. Conditions: 1% and 3% of a 50 ppm peptide solution, 48 h treatment, FIG. 2. The procedure: SIRT6 is a member of the conserved family of sirtuin proteins which are associated with metabolism and longevity. SIRT6 is a histone 3, lysine 9 (H3K9) deacetylase and is primarily involved in DNA repair and telomere stability. The peptide of (SEQ ID No. 5) Gly-Ala-Gly-Val-Ser-Ala-Glu-NH2 was tested for Sirt6 stimulating activity as follows.
• Normal Human Epidermal Keratinocytes p3 • EpiLife Medium (Invitrogen) • Human Keratinocyte Growth Supplement (Invitrogen) • 1× Dulbecco's Phosphate Buffered Saline (DPBS) made from: • 10× DPBS (Mediatech) • Distilled, Deionized Water • Peptide of SEQ ID No. 5 • Rabbit polyclonal antibody to Sirt6 (Abcam) • Alexa Fluor 488 donkey anti-rabbit IgG (H+L) (Invitrogen) • Triton-X 100 (Fisher) • Albumin, Bovine (Sigma) • Vectashield with 4′,6-diamidino-2-phenylindole (DAPI) (Vector)
• 1. Cells were plated into 4 well chamber slides @ 10,000 cells/chamber and incubated at 37° C., 5% CO2 & 95% humidity for 24 hours. • 2. The peptide of SEQ ID No. 5 was prepared as follows: • 2.1. Dissolved 5 mg peptide in 5 ml medium to make a 1000 ppm stock solution. • 2.2. Diluted the stock solution to 50 ppm by combining 400 μl 1000 ppm stock solution with 7.6 ml medium • 2.3. Prepared a 3% of the 50 ppm solution by combining 1.5 ml 50 ppm stock with 48.5 ml medium • 2.4. Prepared a 1% of the 50 ppm solution by combining 0.5 ml 50 ppm stock with […] medium • 3. […]

Ends that are not written are not given here.

In the case of “Gly-Ala-Gly-Val-Ser-Ala-Glu-NH2 (GAGVSAE-NH2) [SEQ ID No. 5]”, the SIRT6 expression result is listed as “dose dependent increase in SIRT6 expression”.

Source of the values: US20150098963A1, “METHODS AND COMPOSITIONS FOR IMPROVING THE APPEARANCE OF SKIN” (priority 2013, published 2015).
